Measured values: ChEMBL document CHEMBL1150034, “Synthesis of peptidyl acetals as inhibitors of prolyl endopeptidase” (Bioorg Med Chem Lett, 1995)

Target: T1, Prolyl endopeptidase (Homo sapiens, UniProt P48147)
T1 sequence (P48147 whole entry): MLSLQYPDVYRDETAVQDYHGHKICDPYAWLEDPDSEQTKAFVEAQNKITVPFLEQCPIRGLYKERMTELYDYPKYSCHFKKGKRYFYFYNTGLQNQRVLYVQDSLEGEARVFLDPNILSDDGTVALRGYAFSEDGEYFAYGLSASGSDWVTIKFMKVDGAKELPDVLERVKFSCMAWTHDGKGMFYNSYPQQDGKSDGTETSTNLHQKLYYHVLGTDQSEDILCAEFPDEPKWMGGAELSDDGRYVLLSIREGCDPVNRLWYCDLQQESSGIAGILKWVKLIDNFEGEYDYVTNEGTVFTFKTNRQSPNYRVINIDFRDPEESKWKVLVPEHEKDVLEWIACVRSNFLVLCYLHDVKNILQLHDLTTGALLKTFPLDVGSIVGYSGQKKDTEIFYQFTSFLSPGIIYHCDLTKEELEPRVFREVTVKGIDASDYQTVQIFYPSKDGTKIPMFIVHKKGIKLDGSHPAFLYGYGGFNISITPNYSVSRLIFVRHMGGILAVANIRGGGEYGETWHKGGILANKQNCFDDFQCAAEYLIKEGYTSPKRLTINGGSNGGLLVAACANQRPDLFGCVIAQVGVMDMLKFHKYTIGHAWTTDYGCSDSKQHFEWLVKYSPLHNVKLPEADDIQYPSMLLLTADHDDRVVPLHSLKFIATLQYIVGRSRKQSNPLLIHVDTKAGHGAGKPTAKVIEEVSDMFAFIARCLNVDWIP
Test: Compound was evaluated for the inhibition of prolyl endopeptidase (PEP) purified from human peripheral blood mononuclear cells

Structure (SMILES)	IC50 [µM]
COCC1COC(C2CCCN2C(=O)C2CCCN2C(=O)OCc2ccccc2)O1 (configuration not stated)	6.5
COC(OC)C1CSCN1C(=O)C1CSCN1C(=O)OCc1ccccc1 (configuration not stated)	2.6
